Viability data for 75 compounds are collected here from the supplement of paper PMC6723410.

SMILES strings stand for the structures.

The assay relates to GUMC-403. The assay is described as follows: viability at highest tested concentration (max response) relative to DMSO (% of DMSO control); higher = less cytotoxic. The note with it: library / dose series: MIPE library, 11-point 1:3 dilution; top concentration 46.1 µM; 48 h. The procedure, abridged:
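This value is viability at the highest tested concentration relative to vehicle control. GUMC-403 papilloma cells from a patient, grown by conditional reprogramming, were plated at 700/well in 1536-well plates and given 23 nL of compound by pin tool for 48 h. CellTiter-Glo luminescence on a ViewLux was normalised with vehicle wells at 100% and empty wells at 0%.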
As to `CCOC(=O)O[C@]1(C(=O)OCCl)CC[C@H]2[C@@H]3CCC4=CC(=O)C=C[C@]4(C)[C@H]3[C@@H](O)C[C@@]21C`, the viability was 149.

The compound `Cc1cc(/C=c2/sc3nc4ccccc4n3c2=O)c(C)n1-c1ccccc1` yielded a viability of 106.

`Cc1c(CCOc2ccc(C(=O)O)cc2)c2cc(Cl)ccc2n1C(c1ccccc1)c1ccccc1` came in with a viability of 113.

`CCC[C@H](Nc1nc(-c2ccc(NC(=O)NCC)c(OC)c2)ncc1C)c1cccnc1` gave a viability of 94.

The compound `CC(C)C1CCC(C(=O)N[C@H](Cc2ccccc2)C(=O)O)CC1` (stereo not given in full) showed a viability of 85.9.

The compound `O=C(OCC#CCSc1nnc(-c2cccc3ccccc23)o1)c1cc2ccccc2s1` yielded a viability of 102.

For the compound `C[C@@H](Oc1cc(-c2cnn(C3CCNCC3)c2)cnc1N)c1c(Cl)ccc(F)c1Cl`, the viability was 76.6.

Regarding `COC/1=C/[C@@H]2[C@@H]3CC4=C(C(=C(OC)C=C4)O)[C@]2(CCN3C)CC1=O`, the viability came out at 65.

Take `COc1cc2nccc(Oc3ccc(NC(=O)Nc4cc(C)on4)c(Cl)c3)c2cc1OC`: the viability was 73.5.

As for `O=c1[nH]c(=O)n([C@H]2C[C@H](O)[C@@H](CO)O2)cc1/C=C/Br`, the viability was 116.

Compound `C[C@H](NCc1ccc(OCc2cccc(F)c2)cc1)C(N)=O` gave a viability of 80.3.

Consider `CCC1(c2ccc(N)cc2)CCC(=O)NC1=O` (stereo not given), for which the viability turned out to be 93.1.

In turn, `OC[C@H]1OCC(O1)[N@@]2C=CC(N)=NC2=O` (stereo not given in full) registered a viability of 114.

`C[C@@H]1CCO[C@H]2CN\3/C=C(/C(=O)NCC4=C(F)C=C(F)C=C4)C(=O)\C(=C3C(=O)N12)O` registered a viability of 110.

On to `O=C1Cc2cc(CCN3CCN(c4nsc5ccccc45)CC3)c(Cl)cc2N1`, for which the viability was 100.

The compound `CNC(=O)c1ccc2cc(C3(O)CCn4cncc43)ccc2c1` (stereo not given) had a viability of 106.

`Cc1cnn(C)c1C(=O)Nc1cc(Nc2ccc3c(/C=C/c4ccccn4)n[nH]c3c2)ccc1F` gave a viability of 125.

`COC(=O)[C@@H]1[C@H]2C[C@H]3c4[nH]c5ccccc5c4CCN3C[C@@H]2CC[C@@H]1O` returned a viability of 128.

Take `OC1=CC=C(C=C1)C/2=C/C3=C(OC2)C=C(O)C=C3`: the viability came out at 89.4.

Compound `COc1ccc(/C=C\c2cc(OC)c(OC)c(OC)c2)cc1NC(=O)[C@H](N)CO` showed a viability of 85.1.

Consider `COC(=O)[C@@H](N)CCCNC(=N)N[N+](=O)[O-]`, for which the viability is 107.

`OC1=CC(=C(C=C1)\C2=C(O)\C(=O)C3=C(O2)C=C(O)C=C3O)O` came in with a viability of 93.9.

In the case of `CC(C)(C)/[N+]([O-])=C/c1ccc([S+](=O)([O-])[O][Na])cc1[S+](=O)([O-])[O][Na]`, the viability stood at 84.5.

For `CC(C)c1noc(N2CCC(COc3ccc(-c4ccc([S+](C)(=O)[O-])cc4)nc3)CC2)n1`, the viability was 91.9.

Compound `COc1ccc(/C=C/C(=O)Nc2ccccc2C(=O)O)cc1OC` returned a viability of 106.

In the case of `Cc1ccc(C(C)(O)c2nc3ccccc3s2)c(C)c1` (stereo not given), the viability worked out at 115.

As for `COc1nc(C)cnc1N[S+](=O)([O-])c1cccnc1-c1ccc(-c2nnco2)cc1`, the viability was 138.

On to `N[C@@H]1CONC1=O`, for which the viability is 127.

In turn, `CNCC(O)c1ccc(O)cc1` (stereo not given) came in with a viability of 132.

`COC1=CC=CC(=C1/C2=N/CC3=C(N=C(NC4=CC(=C(C=C4)C(O)=O)OC)N=C3)C5=CC=C(Cl)C=C25)F`: the viability amounted to 45.4.

In turn, `CN(C)[C@@H](CCOc1cccc2ccccc12)c1ccccc1` returned a viability of 92.3.

In the case of `OC[C@H]1O[C@H](C[C@@H]1O)N2\C=C(F)/C(=O)NC2=O`, the viability was 65.7.

`CCC1=C[C@@H]2CN(C1)Cc1c([nH]c3ccccc13)[C@@](C(=O)OC)(c1cc3c(cc1OC)N(C)[C@H]1[C@@](O)(C(=O)OC)[C@H](OC(C)=O)[C@]4(CC)C=CCN5CC[C@]31[C@@H]54)C2` had a viability of 89.9.

On to `c1ccc2c(CCNc3ccc(Nc4ccncc4)cc3)c[nH]c2c1`, for which the viability is 108.

The compound `CC(C)C(=O)Oc1ccc(CO)cc1[C@H](CCN(C(C)C)C(C)C)c1ccccc1` yielded a viability of 84.7.

The compound `CN(CC#C)C/C1=C/C2=CC=CC=C2OC3=CC=CC=C13` had a viability of 81.4.

On to `COC1=CC2=NC=CC(=C2C=C1)OC3=CN=C(NC(=O)C/4=C(C)/N(CC(C)(C)O)N(C4=O)C5=CC=CC=C5)C=C3`, for which the viability amounted to 84.6.

`Cc1cc(Nc2nc(N[C@@H](C)c3ccc(F)cc3)c(C#N)cc2F)n[nH]1` showed a viability of 65.1.

On to `Nc1nc(Cl)nc2c1ncn2[C@@H]1O[C@H](CO)[C@@H](O)[C@@H]1F`, for which the viability turned out to be 104.

Compound `C/C=C/C(=O)N(CC)c1ccccc1C` showed a viability of 110.

With `Cc1ccccc1N1C(=O)c2cc([S+](N)(=O)[O-])c(Cl)cc2NC1C` (stereo not given), the viability came out at 105.

As for `C[C@](Cc1c[nH]c2ccccc12)(NC(=O)OC1C2CC3CC(C2)CC1C3)C(=O)NC[C@H](NC(=O)CCC(=O)O)c1ccccc1` (stereo not given in full), the viability worked out at 103.

`C[C@@H](N)c1ccc(C(=O)Nc2ccnc3[nH]ccc23)cc1` had a viability of 139.

As for `O=C(c1ccc(F)cc1)N1CCC[C@H](c2nc(-c3ccc(F)cc3)no2)C1`, the viability worked out at 119.

Take `CN1CC/C(CC1)=C3\c4ccccc4CC(=O)c2sccc23`: the viability turned out to be 97.2.

`CSCC[C@@H](NC(=O)[C@@H](Cc1ccccc1)NC(=O)CNC(=O)CNC(=O)[C@@H](N)Cc1ccc(O)cc1)C(=O)O` gave a viability of 126.

Turning to `Cc1ccc(NC(=O)c2ccc(CN3CCN(C)CC3)cc2)cc1Nc1nc(-c2cccnc2)cs1`, the viability worked out at 130.

`Cn1ccc2cc3c(cc21)CCN3C(=O)Nc1cccnc1`: the viability came out at 126.

In the case of `CN1CCN(CC1)C2=CC3=C([NH]C(=N3)C/4=C(\N)C5=C(F)C=CC=C5NC4=O)C=C2`, the viability was determined as 123.

In turn, `CCC[S+]([O-])c1ccc2[nH]c(NC(=O)OC)nc2c1` (stereo not given) gave a viability of 92.2.

Regarding `C[C@]1(O)CC(C1)C2=NC(=C3[N]2C=CN=C3N)C4=CC5=C(C=C4)C=CC(=N5)C6=CC=CC=C6` (stereo not given), the viability is 86.4.

In turn, `COC1=CC(=C2C(=O)N(COC/3=C/C(=O)N4\C=C/C=C(OCCN5CCCCC5)\C4=N3)[S+]([O-])(=O)C2=C1)C(C)C` had a viability of 122.

In turn, `CC1CNc2c(cccc2[S+](=O)([O-])N[C@@H](CCCNC(=N)N)C(=O)N2CC[C@@H](C)C[C@@H]2C(=O)O)C1` (stereo not given in full) gave a viability of 125.

`O=C(NCc1ccncc1)C12C[C@H]3C[C@@H](C1)CC(c1ccc(Cl)cc1)(C3)C2` had a viability of 108.

The compound `CO[C@@H]1[C@@H](O)[C@H](O)[C@@H](n2c3c(Cl)cccc3c3c4c(c5c6cccc(Cl)c6[nH]c5c32)C(=O)NC4=O)O[C@H]1CO` showed a viability of 112.

Compound `Nc1nc(OCc2ccccc2)c2nc[nH]c2n1` returned a viability of 111.

`O=C(O)/C=C/c1ccc(O)c(O)c1` had a viability of 120.

`COc1cc[nH]c2ncc(C(=O)C(=O)N3CCN(C(=O)c4ccccc4)C[C@H]3C)c1-2` gave a viability of 134.

In the case of `CCOC(=O)c1c(C)n(C)c2ccc(O)cc12`, the viability worked out at 108.

Consider `Nc1nc(F)nc2c1ncn2[C@@H]1O[C@H](COP(=O)(O)O)[C@@H](O)[C@@H]1O`, for which the viability came to 101.

As for `COCCOC(=O)C/1=C(C)/NC/2=C(C1C3=CC=CC(=C3)O)/C(=O)CC(C2)C4=C(OC)C=CC=C4` (stereo not given), the viability turned out to be 79.8.

`C[C@H]1[C@@H](CC(C[C@H]2O[C@@H]3O[C@]4(C)CC[C@H]5[C@H](C)CC[C@@H]([C@H]2C)[C@@]35OO4)C[S+](=O)([O-])c2ccc(COC(=O)N(C)C)cc2)O[C@@H]2O[C@]3(C)CC[C@H]4[C@H](C)CC[C@@H]1[C@@]24OO3`: the viability came out at 104.

`COC1CCC(C(=O)c2ccc3nc4c(cc3c2)CCCO4)CC1` (stereo not given) yielded a viability of 89.8.

Consider `COc1cc(C)c(Sc2cnc(NC(=O)c3ccc(CNC(C)C(C)(C)C)cc3)s2)cc1C(=O)N1CCN(C(C)=O)CC1` (stereo not given), for which the viability was 71.7.

`Cn1c(=O)n(-c2ccc(C(C)(C)C#N)cc2)c2c3cc(-c4cnc5ccccc5c4)ccc3ncc21` displayed a viability of 73.3.

The compound `CNC(=O)c1ccccc1Sc1ccc2c(/C=C/c3ccccn3)n[nH]c2c1` displayed a viability of 104.

`CN(C)CC(=O)N1CCC(CC1)C2=CC=C(NC(=O)C3=NC(=C[NH]3)C#N)C(=C2)\C4=C\CCCC4` returned a viability of 129.

Turning to `Cc1c(O)cccc1C(=O)N[C@@H](CSc1ccccc1)[C@H](O)CN1C[C@H]2CCCC[C@H]2C[C@H]1C(=O)NC(C)(C)C`, the viability is 126.

Compound `O=C(CCc1ccc(O)cc1)c1c(O)cc(O)cc1O` displayed a viability of 107.

In the case of `Cc1cc(C(C)(C)C)c(O)c(C)c1CC1=NCCN1`, the viability turned out to be 120.

Consider `N\C1=N\C2=C(N=C[N]2COC(CO)CO)C(=O)N1`, for which the viability amounted to 43.9.

In turn, `COCCCC/C(=N\OCCN)c1ccc(C(F)(F)F)cc1` displayed a viability of 90.

In turn, `O=C(O[C@H]1C[C@H]2CC[C@@H](C1)[N+]21CCCC1)C(O)(c1ccccc1)c1ccccc1.[Cl-]` yielded a viability of 140.

Compound `COC(=O)Nc1nc2cc(C(=O)c3cccs3)ccc2[nH]1` displayed a viability of 105.

`COc1cc(O)c2c(c1)C1OC1C[C@H](O)[C@H](O)C(=O)/C=C\C[C@H](C)OC2=O` (stereo not given in full): the viability worked out at 107.
